Experimental data as given in ChEMBL document CHEMBL4649995, “Discovery of a PCAF Bromodomain Chemical Probe” (Angew Chem Int Ed Engl, 2017).

Key:
Conditions in all cases: Compound concentration 10.0 uM, Protein concentration 2.0 uM
[1] = biological target: Histone-lysine N-methyltransferase ASH1L (Homo sapiens) (UniProt Q9NR48)
[2] = biological target: ATPase family AAA domain-containing protein 2 (Homo sapiens) (UniProt Q6PL18)
[3] = biological target: ATPase family AAA domain-containing protein 2B (Homo sapiens) (UniProt Q9ULI0)
[4] = biological target: Bromodomain adjacent to zinc finger domain protein 1A (Homo sapiens) (UniProt Q9NRL2)
[5] = biological target: Tyrosine-protein kinase BAZ1B (Homo sapiens) (UniProt Q9UIG0)
[6] = biological target: Bromodomain adjacent to zinc finger domain protein 2A (Homo sapiens) (UniProt Q9UIF9)
[7] = biological target: Bromodomain adjacent to zinc finger domain protein 2B (Homo sapiens) (UniProt Q9UIF8)
[8] = biological target: Nucleosome-remodeling factor subunit BPTF (Homo sapiens) (UniProt Q12830)
[9] = biological target: Bromodomain-containing protein 1 (Homo sapiens) (UniProt O95696)
[10] = biological target: Bromodomain-containing protein 2 (Homo sapiens) (UniProt P25440)
Sequence of Bromodomain-containing protein 2 (Homo sapiens) (P25440 whole entry, looked up): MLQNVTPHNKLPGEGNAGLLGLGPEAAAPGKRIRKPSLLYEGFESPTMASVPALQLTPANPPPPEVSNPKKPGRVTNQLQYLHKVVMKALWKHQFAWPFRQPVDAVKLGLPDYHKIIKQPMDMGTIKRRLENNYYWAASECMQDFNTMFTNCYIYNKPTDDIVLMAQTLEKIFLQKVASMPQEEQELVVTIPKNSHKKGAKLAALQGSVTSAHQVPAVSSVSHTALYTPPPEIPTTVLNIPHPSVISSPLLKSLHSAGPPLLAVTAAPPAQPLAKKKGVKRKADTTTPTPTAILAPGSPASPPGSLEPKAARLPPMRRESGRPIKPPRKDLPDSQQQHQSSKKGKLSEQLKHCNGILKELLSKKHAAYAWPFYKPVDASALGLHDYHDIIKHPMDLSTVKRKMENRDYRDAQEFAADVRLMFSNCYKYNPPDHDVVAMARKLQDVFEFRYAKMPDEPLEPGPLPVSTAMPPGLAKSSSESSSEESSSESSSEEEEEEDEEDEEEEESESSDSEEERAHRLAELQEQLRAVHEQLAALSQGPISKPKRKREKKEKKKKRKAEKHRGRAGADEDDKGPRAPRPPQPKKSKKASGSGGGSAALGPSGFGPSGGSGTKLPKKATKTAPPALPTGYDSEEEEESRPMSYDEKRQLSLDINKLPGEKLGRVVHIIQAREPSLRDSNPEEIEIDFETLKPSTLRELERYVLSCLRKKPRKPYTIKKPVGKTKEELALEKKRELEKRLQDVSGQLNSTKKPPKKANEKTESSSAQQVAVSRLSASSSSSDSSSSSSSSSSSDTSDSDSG

[11] = biological target: Bromodomain-containing protein 2 (Homo sapiens) (UniProt P25440); remark: listed apart in the source
[12] = biological target: Bromodomain-containing protein 3 (Homo sapiens) (UniProt Q15059)
[13] = biological target: Bromodomain-containing protein 3 (Homo sapiens) (UniProt Q15059); remark: listed apart in the source
[14] = biological target: Bromodomain-containing protein 4 (Homo sapiens) (UniProt O60885)
[15] = biological target: Bromodomain-containing protein 7 (Homo sapiens) (UniProt Q9NPI1)
[16] = biological target: Bromodomain-containing protein 9 (Homo sapiens) (UniProt Q9H8M2)
[17] = biological target: Bromodomain testis-specific protein (Homo sapiens) (UniProt Q58F21)
[18] = biological target: Bromodomain testis-specific protein (Homo sapiens) (UniProt Q58F21); remark: listed apart in the source
[19] = biological target: Peregrin (Homo sapiens) (UniProt P55201)
Sequence of Peregrin (Homo sapiens) (P55201 whole entry): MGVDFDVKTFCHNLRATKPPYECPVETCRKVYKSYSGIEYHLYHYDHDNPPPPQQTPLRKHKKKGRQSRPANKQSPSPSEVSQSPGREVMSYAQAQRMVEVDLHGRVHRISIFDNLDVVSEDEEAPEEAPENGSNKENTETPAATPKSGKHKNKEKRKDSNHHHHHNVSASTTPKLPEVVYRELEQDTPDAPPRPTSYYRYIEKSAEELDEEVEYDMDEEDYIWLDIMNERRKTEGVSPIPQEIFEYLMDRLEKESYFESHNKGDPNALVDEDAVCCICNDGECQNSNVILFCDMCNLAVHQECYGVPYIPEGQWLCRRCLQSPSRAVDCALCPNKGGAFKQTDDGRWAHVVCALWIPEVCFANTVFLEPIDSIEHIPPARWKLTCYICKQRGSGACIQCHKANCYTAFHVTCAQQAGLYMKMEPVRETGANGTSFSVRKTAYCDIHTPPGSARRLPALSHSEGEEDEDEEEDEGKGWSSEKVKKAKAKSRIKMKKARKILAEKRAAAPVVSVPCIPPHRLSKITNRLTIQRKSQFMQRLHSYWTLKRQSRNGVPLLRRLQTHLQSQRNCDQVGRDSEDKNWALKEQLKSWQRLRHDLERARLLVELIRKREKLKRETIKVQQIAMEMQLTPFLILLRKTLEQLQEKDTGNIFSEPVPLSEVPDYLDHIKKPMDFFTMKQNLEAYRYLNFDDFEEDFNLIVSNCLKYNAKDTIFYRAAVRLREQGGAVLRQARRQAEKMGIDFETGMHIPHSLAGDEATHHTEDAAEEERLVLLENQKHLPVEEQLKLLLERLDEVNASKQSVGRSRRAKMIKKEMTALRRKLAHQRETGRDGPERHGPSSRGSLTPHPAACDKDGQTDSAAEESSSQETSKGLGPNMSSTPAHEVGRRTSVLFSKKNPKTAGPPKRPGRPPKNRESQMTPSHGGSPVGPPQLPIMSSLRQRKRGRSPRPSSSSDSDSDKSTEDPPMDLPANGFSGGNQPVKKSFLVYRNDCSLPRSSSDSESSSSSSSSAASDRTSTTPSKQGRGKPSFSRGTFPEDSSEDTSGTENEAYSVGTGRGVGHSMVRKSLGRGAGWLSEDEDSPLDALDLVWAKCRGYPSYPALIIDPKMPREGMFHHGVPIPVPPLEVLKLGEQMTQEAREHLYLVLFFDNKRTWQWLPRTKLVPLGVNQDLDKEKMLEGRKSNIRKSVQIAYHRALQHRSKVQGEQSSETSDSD

[20] = biological target: Bromodomain and PHD finger-containing protein 3 (Homo sapiens) (UniProt Q9ULD4)
[21] = biological target: Bromodomain and WD repeat-containing protein 1 (Homo sapiens) (UniProt Q9NSI6)
[22] = biological target: Bromodomain and WD repeat-containing protein 3 (Homo sapiens) (UniProt Q6RI45)
[23] = biological target: Chromatin remodeling regulator CECR2 (Homo sapiens) (UniProt Q9BXF3)
[24] = biological target: CREB-binding protein (Homo sapiens) (UniProt Q92793)
[25] = biological target: Histone acetyltransferase p300 (Homo sapiens) (UniProt Q09472)
[26] = biological target: Histone acetyltransferase KAT2A (Homo sapiens) (UniProt Q92830)
[27] = biological target: Histone-lysine N-methyltransferase 2A (Homo sapiens) (UniProt Q03164)
[28] = biological target: Protein polybromo-1 (Homo sapiens) (UniProt Q86U86)
Sequence of Protein polybromo-1 (Homo sapiens) (Q86U86 whole entry): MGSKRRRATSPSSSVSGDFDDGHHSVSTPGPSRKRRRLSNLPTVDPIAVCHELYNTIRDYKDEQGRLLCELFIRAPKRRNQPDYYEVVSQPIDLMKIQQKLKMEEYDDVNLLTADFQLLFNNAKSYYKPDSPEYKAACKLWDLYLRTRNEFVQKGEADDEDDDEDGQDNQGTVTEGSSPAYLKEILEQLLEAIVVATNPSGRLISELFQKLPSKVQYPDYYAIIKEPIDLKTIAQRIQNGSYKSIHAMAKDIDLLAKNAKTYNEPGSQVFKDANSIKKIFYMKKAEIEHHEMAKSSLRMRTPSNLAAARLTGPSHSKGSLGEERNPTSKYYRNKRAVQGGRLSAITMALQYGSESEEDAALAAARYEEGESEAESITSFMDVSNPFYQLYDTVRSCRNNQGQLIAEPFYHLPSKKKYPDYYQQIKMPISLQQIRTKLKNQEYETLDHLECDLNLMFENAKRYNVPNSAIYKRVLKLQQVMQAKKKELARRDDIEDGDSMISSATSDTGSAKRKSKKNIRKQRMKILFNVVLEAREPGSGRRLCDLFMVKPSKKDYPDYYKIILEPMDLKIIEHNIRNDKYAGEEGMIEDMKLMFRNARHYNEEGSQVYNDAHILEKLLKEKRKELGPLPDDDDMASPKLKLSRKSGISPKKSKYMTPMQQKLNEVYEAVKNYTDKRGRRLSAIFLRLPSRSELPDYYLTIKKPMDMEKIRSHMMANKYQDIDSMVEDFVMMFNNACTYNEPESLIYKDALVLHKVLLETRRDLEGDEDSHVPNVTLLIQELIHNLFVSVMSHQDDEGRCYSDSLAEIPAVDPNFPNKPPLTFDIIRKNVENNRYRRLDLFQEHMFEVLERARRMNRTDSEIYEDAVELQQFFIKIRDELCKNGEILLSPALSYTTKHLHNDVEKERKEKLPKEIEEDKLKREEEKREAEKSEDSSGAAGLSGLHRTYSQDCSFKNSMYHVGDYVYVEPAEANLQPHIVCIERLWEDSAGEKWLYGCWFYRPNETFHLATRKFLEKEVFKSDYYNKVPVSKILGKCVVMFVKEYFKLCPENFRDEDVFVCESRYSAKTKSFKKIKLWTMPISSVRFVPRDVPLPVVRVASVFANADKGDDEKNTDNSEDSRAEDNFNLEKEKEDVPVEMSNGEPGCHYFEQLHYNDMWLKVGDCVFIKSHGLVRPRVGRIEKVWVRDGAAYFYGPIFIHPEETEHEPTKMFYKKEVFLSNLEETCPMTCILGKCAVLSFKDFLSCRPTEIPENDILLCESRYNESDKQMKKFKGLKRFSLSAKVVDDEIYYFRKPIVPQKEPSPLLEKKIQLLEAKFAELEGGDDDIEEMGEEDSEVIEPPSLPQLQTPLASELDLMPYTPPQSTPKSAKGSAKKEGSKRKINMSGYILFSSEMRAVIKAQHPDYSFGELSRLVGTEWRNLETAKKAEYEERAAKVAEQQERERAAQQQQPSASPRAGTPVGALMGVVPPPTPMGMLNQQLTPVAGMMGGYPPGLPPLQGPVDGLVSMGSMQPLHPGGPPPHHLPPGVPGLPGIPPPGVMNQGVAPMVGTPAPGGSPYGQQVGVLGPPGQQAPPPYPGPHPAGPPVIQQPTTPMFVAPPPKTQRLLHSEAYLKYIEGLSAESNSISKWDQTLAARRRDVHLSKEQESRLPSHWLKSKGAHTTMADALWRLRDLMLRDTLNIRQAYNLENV

[29] = biological target: Protein polybromo-1 (Homo sapiens) (UniProt Q86U86); remark: listed apart in the source
[30] = biological target: Protein polybromo-1 (Homo sapiens) (UniProt Q86U86); remark: listed apart in the source
[31] = biological target: Protein polybromo-1 (Homo sapiens) (UniProt Q86U86); remark: listed apart in the source
[32] = biological target: Protein polybromo-1 (Homo sapiens) (UniProt Q86U86); remark: listed apart in the source
[33] = biological target: Protein polybromo-1 (Homo sapiens) (UniProt Q86U86); remark: listed apart in the source
[34] = biological target: PH-interacting protein (Homo sapiens) (UniProt Q8WWQ0)
[35] = biological target: SWI/SNF-related matrix-associated actin-dependent regulator of chromatin subfamily A member 2 (Homo sapiens) (UniProt P51531)
[36] = biological target: SWI/SNF-related matrix-associated actin-dependent regulator of chromatin subfamily A member 4 (Homo sapiens) (UniProt P51532)
[37] = biological target: Nuclear body protein SP140 (Homo sapiens) (UniProt Q13342)
[38] = biological target: Nuclear body protein SP140-like protein (Homo sapiens) (UniProt Q9H930)
[39] = biological target: Transcription initiation factor TFIID subunit 1 (Homo sapiens) (UniProt P21675)
[40] = biological target: Transcription initiation factor TFIID subunit 1 (Homo sapiens) (UniProt P21675); remark: listed apart in the source
[41] = biological target: Transcription initiation factor TFIID subunit 1-like (Homo sapiens) (UniProt Q8IZX4)
[42] = biological target: Transcription initiation factor TFIID subunit 1-like (Homo sapiens) (UniProt Q8IZX4); remark: listed apart in the source
[43] = biological target: Transcription intermediary factor 1-alpha (Homo sapiens) (UniProt O15164)
Sequence of Transcription intermediary factor 1-alpha (Homo sapiens) (O15164 whole entry): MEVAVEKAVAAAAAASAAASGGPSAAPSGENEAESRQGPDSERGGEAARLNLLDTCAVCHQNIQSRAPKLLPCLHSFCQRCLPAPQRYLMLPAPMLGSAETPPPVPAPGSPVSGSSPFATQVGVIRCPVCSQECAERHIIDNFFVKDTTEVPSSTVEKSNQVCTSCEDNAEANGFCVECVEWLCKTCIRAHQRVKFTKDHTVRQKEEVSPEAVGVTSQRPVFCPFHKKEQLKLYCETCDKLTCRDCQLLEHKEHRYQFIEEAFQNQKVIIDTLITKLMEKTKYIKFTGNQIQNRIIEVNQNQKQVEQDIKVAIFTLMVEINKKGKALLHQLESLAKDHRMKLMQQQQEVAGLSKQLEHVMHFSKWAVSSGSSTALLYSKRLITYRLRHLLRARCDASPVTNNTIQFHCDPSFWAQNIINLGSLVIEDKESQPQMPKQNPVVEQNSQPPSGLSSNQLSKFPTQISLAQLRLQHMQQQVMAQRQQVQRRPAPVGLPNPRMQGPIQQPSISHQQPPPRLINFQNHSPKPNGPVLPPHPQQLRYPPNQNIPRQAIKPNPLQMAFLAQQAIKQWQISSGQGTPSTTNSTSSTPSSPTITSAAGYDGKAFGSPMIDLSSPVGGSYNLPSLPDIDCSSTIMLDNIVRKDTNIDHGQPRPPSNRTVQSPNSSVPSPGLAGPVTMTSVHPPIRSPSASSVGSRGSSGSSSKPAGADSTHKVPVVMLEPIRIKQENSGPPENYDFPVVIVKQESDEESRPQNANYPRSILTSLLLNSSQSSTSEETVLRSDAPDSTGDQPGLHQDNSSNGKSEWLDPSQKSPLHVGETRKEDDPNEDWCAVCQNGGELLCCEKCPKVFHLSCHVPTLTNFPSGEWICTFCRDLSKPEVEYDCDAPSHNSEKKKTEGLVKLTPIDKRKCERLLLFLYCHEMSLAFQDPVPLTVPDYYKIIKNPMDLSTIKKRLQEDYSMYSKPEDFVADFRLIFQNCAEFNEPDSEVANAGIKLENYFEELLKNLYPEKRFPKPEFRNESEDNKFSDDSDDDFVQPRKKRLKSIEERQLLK

[44] = biological target: Transcription intermediary factor 1-beta (Homo sapiens) (UniProt Q13263)
[45] = biological target: Bromodomain-containing protein 4 (Homo sapiens) (UniProt O60885); remark: listed apart in the source
[46] = biological target: Peregrin (Homo sapiens) (UniProt P55201); remark: listed apart in the source
[47] = biological target: Transcription intermediary factor 1-alpha (Homo sapiens) (UniProt O15164); remark: listed apart in the source

ΔTm [1]: 0.62 °C
ΔTm [2]: 1.18 °C
ΔTm [3]: 0.61 °C
ΔTm [4]: 1.31 °C
ΔTm [5]: 0.72 °C
ΔTm [6]: 0.1 °C
ΔTm [7]: 0.67 °C
ΔTm [8]: 0.08 °C
ΔTm [9]: -0.26 °C
ΔTm [10]: -0.06 °C
ΔTm [11]: 0.23 °C
ΔTm [12]: 0.13 °C
ΔTm [13]: 0.26 °C
ΔTm [14]: 0.1 °C
ΔTm [15]: -0.07 °C
ΔTm [16]: 0.56 °C
ΔTm [17]: -2.19 °C
ΔTm [18]: 0.72 °C
ΔTm [19]: 1.03 °C
ΔTm [20]: 0.78 °C
ΔTm [21]: 2 °C
ΔTm [22]: 2.16 °C
ΔTm [23]: 0.63 °C
ΔTm [24]: 0.95 °C
ΔTm [25]: 0.86 °C
ΔTm [26]: 3.75 °C
ΔTm [27]: 1.14 °C
ΔTm [28]: 0.13 °C
ΔTm [29]: 0.43 °C
ΔTm [30]: 0.65 °C
ΔTm [31]: 0.1 °C
ΔTm [32]: 0.75 °C
ΔTm [33]: 0.26 °C
ΔTm [34]: -0.82 °C
ΔTm [35]: 0.51 °C
ΔTm [36]: 0.42 °C
ΔTm [37]: 0.09 °C
ΔTm [38]: 0.94 °C
ΔTm [39]: 0.42 °C
ΔTm [40]: 0.5 °C
ΔTm [41]: 0.67 °C
ΔTm [42]: 0.33 °C
ΔTm [43]: 0.77 °C
ΔTm [44]: 0.5 °C
ΔTm [45]: 0.39 °C
ΔTm [46]: 1.19 °C
ΔTm [47]: 0.69 °C
SMILES: Cc1nnc2c3ccccc3c(N[C@@H](C)[C@H](c3ccccc3)N(C)C)nn12
